Measurements as given in US20050244360A1, “Cosmetic composition for greasy skin care, containing a carboxylic fatty acid or a derivative thereof” (L'OREAL, priority 2003, published 2005).

Key:
[1] = system: sebocytes from an immortalized human line; assay: Reduction of lipogenesis: lipids produced by immortalized human sebocytes, RED NILE dye fluorescence; assay type: cell-based; conditions: for QUANTITY OF LIPIDS MEASURED / REDUCTION IN LIPOGENESIS/CONTROL: 2 days of treatment; for QUANTITY OF LIPIDS MEASURED: control = 100; for REDUCTION IN LIPOGENESIS/CONTROL: vs culture medium control
Method: The test which was developed consisted of measuring, after 2 days of treatment, the quantity of lipids produced by sebocytes from an immortalized human line (in the presence or absence of active agents). The fluorescence emitted by RED NILE dye was measured at two distinct wavelengths to quantify the amount of characteristic neutral lipids of the sebum. Glucocorticoids are known to reduce the production of sebum in non […] subjects (Leveque, J. L. et al., (1991)). Thus, cortisol was selected as a reference, while the culture medium alone was selected as the control (no supplemental excipient was added either to the cortisol or to the azelaic acid, these latter being dissolved in the culture medium under the test conditions). […] Its activity was moderate compared with the pharmaceutical reference. Nevertheless, it should have a significant cosmetic action in a suitable formulation, if necessary by making repeated applications.

SZ 95 sebocytes = assay: Tolerability: cytotoxicity by production of LDH in the culture medium; assay type: cell-based, human; conditions: 1 μM
Method: The tolerability of azelaic acid was measured by measuring the cytotoxicty of the product using SZ 95 sebocytes (Zouboulis, Seltmann et al., 1999). The test conditions were the same as those given in Example 1. The cytotoxicity was measured by the production of LDH in the culture medium.

cutaneous micrococcaceae = conditions: topical gel containing 20% azelaic acid, male subjects with clinical acne; cited from earlier work
Propionibacterium sp = conditions: topical gel containing 20% azelaic acid, male subjects with clinical acne; cited from earlier work
sebum excretion = conditions: topical 20% azelaic acid gel, individuals with physiological acne; cited from earlier work
excreted sebum = conditions: doses used to treat acne (SKINOREN); subjects with acne, seborrheic skin without acne, normoseborrheic; cited from earlier work
human keratinocytes = conditions: concentrations of the order of 1 mM; cited from earlier work
sebum production = conditions: cited from earlier work

Compound | effect on sebum production by sebocytes (in words) ([1]; 1 μM) | QUANTITY OF LIPIDS MEASURED ([1]; 1 μM) | REDUCTION IN LIPOGENESIS/CONTROL ([1]; 1 μM) [%] | reduction in lipid secretion ([1]; 1 μM, model immortalized culture of human sebocytes) [%] | activity compared with the pharmaceutical reference (cortisol) ([1]; azelaic acid 1 μM vs cortisol 0.1 μM) | sebocyte survival (in words) (SZ 95 sebocytes) | LDH VARIATION/CONTROL (SZ 95 sebocytes; same conditions as Example 1) [%] | reduction of the number of cutaneous micrococcaceae, factor (cutaneous micrococcaceae) | reduction of the number of Propionibacterium sp, factor (Propionibacterium sp) | effect on sebum excretion (in words) (sebum excretion) | effect on quantity and composition of the excreted sebum (in words) (excreted sebum) | effect on proliferation of human keratinocytes (in words) (human keratinocytes) | ability to reduce sebum production (in words) (sebum production) | QUANTITY OF LIPIDS MEASURED ([1]; 0.1 μM) | REDUCTION IN LIPOGENESIS/CONTROL ([1]; 0.1 μM) [%]
O=C(O)CCCCCCCC(=O)O [Azelaic acid, azelaic acid] | inhibits sebum production | 93 | −7 | 7 | moderate | improves sebocyte survival | −20 | 224 | 30 | did not cause a significant modification in sebum excretion | did not modify either the quantity or the composition of the excreted sebum | reduces the proliferation of human keratinocytes | inability of azelaic acid to reduce sebum production | – | –
C[C@]12CCC(=O)C=C1CC[C@@H]1[C@@H]2[C@@H](O)C[C@@]2(C)[C@H]1CC[C@]2(O)C(=O)CO [Cortisol] | – | – | – | – | – | – | – | – | – | – | – | – | – | 71 | −29
